Where two headings read alike, the source gives them in different places.
What was measured:
[1] = biological target: T1, EGFR wild type (Homo sapiens, UniProt P00533); experiment: Inhibition of EGFR wild type biochemical enzymatic activity (HTRF); conditions: 1 mM ATP
T1 construct: purchased Carna Bio
Experimental: (§1) Biological Example 1: Inhibition of EGFR WT and Mutant Biochemical Enzymatic Activity
(§2) The inhibition potency of compounds against these enzymes was assessed using Homogenous Time Resolved Fluorescence approach (HTRF, CisBio. Cat No. 62TKOPEJ).
(§3) Inhibitory effects of the compounds were determined by measuring the enzymatic activity of EGFR enzyme phosphorylates 1 μM TK Substrate-biotin in the presence of 1 mM adenosine-5′-triphosphate (ATP) and varying concentrations of the test compound. The enzyme reaction buffer contains 5 mM MgCl2, 1 mM MnC12, 0.01% CHAPS, 1 mM dithiothreitol (DTT), 0.5% dimethylsulfoxide (DMSO), and 1× supplemented enzymatic buffer. The WT and mutant EGFR enzymes (SignalChem) were added to plates containing inhibitors, followed by activation of the kinase reaction by addition of ATP and peptide substrates. After incubation for 1 h at room temperature, the reaction was stopped by the addition of the detection reagent mix containing EDTA. The fluorescence was measured at 615 nm and 665 nm, respectively with excitation wavelength at 320 nm. The calculated signal ratio of 665 nm/615 nm is proportional to the kinase activity. The concentration of compound producing 50% inhibition of the respective kinase (IC50) was calculated using four-parameter logistic fit with XL-FIT.

[2] = biological target: T2, EGFR L858R (Homo sapiens, UniProt P00533, L858R); experiment: Inhibition of EGFR L858R biochemical enzymatic activity (HTRF); conditions: 1 mM ATP
T2 construct: purchased Carna Bio
Experimental: as §1, §2, §3

[3] = biological target: T3, EGFR Exon19Del/T790M (Homo sapiens, UniProt P00533, DEL746-750/T790M); experiment: Inhibition of EGFR Exon19Del/T790M biochemical enzymatic activity (HTRF); conditions: 1 mM ATP
T3 construct: purchased Carna Bio
Experimental: as §1, §2, §3

[4] = biological target: T4, EGFR[T790M/C797S/d746-750] (Homo sapiens, UniProt P00533, C797S/DEL746-750/T790M); experiment: Inhibition of EGFR[T790M/C797S/d746-750] biochemical enzymatic activity (HTRF)
T4 construct: purchased Carna Bio
Experimental: as §1, §2, §3

[5] = biological target: T5, EGFR[T790M/C797S/L858R] (Homo sapiens, UniProt P00533, C797S/L858R/T790M); experiment: Inhibition of EGFR[T790M/C797S/L858R] biochemical enzymatic activity (HTRF); conditions: 1 mM ATP
T5 construct: purchased Carna Bio
Experimental: as §1, §2, §3

[6] = biological target: T6, EGFR L858R/T790M (Homo sapiens, UniProt P00533, L858R/T790M); experiment: Inhibition of EGFR L858R/T790M biochemical enzymatic activity (HTRF); conditions: 1 mM ATP
T6 construct: purchased Carna Bio
Experimental: as §1, §2, §3

[7] = biological target: T7, EGFR (C797S L858R) (Homo sapiens, UniProt P00533, C797S/L858R); experiment: Inhibition of EGFR (C797S L858R) biochemical enzymatic activity (HTRF); conditions: 1 mM ATP
T7 construct: purchased signalchem
Experimental: as §1, §2, §3

[8] = biological target: T8, EGFR (d746-750 C797S) (Homo sapiens, UniProt P00533, C797S/DEL746-750); experiment: Inhibition of EGFR (d746-750 C797S) biochemical enzymatic activity (HTRF); conditions: 1 mM ATP
T8 construct: purchased signalchem
Experimental: as §1, §2, §3

[9] = biological target: T9, EGFR Exon19Del (Homo sapiens, UniProt P00533, DEL746-750); experiment: Inhibition of EGFR Exon19Del biochemical enzymatic activity (HTRF); conditions: read-out: IC50 @Del19
T9 construct: purchased Carna Bio
Experimental: as §1, §2, §3

[10] = system: Ba/F3 cells expressing EGFR mutations; experiment: Cell proliferation assay, Ba/F3 cells expressing EGFR mutations (CellTiter-Glo, 72 hours); assay type: cell-based
Experimental: (§4) Biological Example 2: Cell Proliferation Assays
(§5) Ba/F3 cells expressing EGFR mutations were seeded in 384-well plates at 5000 cells/well in RPMI1640 medium containing […]. PC-9 at 500 cells/well was seeded into 384-well plates in RPMI1640 medium with 10% FBS. After overnight incubation, the assay plates were dosed with compounds at a series of concentrations. Alongside dosing the assay plates, the day 0 plate was processed using CellTiter-Glo® Luminescent Cell Viability Assay (Promega) to measure the number of viable cells (G0). The assay plates were further incubated for 72 hours and the number of viable cells (G3) was measured. The percentage of proliferation was calculated as: […]=100×(G3 value of sample well−G0 value)/(G3 value of DMSO control−G0 value). The concentration of compound producing 50% proliferation inhibition (GI50) was further calculated in best-fit curves using XLFit software. N/A=not available.

[11] = system: PC-9; experiment: Cell proliferation assay, PC-9 cells (CellTiter-Glo, 72 hours); assay type: cell-based; conditions: Homo sapiens, PC-9, 72 h, PC9 cells, read-out: GI50 PC9
Experimental: as §4, §5

[12] = EGFR wild type, 1 h at room temperature, read-out: IC50 @WT
[13] = EGFR Exon19Del/T790M, 1 h at room temperature, read-out: IC50 @Del19-T790M
[14] = EGFR[T790M/C797S/d746-750], 1 mM ATP, 1 h at room temperature, read-out: IC50 @T790M - C797S - Del19
[15] = EGFR[T790M/C797S/L858R], 1 h at room temperature, read-out: IC50 @T790M- C797S - L858R
[16] = EGFR L858R/T790M, 1 h at room temperature, read-out: IC50 @L858R-T790M
[17] = EGFR (C797S L858R), 1 h at room temperature, read-out: IC50 @L858-C797S
[18] = EGFR (d746-750 C797S), 1 h at room temperature, read-out: IC50 @Del19-C797S
[19] = EGFR Exon19Del, 1 mM ATP, 1 h at room temperature
[20] = BaF3 cells, EGFR L858R - T790-C797S, read-out: GI50 L858R - T790-C797S/BaF3
[21] = BaF3 cells, EGFR L858R - T790M, read-out: GI50 L858R - T790M/BaF3
[22] = EGFR DEL19 - T790M, read-out: GI50 DEL19 - T790M

T4 sequence (P00533 with tags, fused parts or gaps DEL746-750/T790M/C797S limits assumed): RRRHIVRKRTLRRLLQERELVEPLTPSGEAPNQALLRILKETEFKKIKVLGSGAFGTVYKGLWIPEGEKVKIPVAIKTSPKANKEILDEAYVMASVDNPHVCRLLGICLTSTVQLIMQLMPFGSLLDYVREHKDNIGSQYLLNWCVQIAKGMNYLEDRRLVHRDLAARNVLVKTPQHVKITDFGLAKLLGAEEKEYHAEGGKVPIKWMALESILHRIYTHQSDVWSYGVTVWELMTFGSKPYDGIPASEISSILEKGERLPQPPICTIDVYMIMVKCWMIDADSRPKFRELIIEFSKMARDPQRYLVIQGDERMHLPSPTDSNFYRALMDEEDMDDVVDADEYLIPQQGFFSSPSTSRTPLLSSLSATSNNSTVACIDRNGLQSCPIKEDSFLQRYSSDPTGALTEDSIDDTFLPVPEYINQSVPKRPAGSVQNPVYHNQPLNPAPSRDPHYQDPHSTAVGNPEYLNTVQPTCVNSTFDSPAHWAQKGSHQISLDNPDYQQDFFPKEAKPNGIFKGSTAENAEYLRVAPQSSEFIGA
T3 sequence (P00533 with tags, fused parts or gaps DEL746-750/T790M limits assumed): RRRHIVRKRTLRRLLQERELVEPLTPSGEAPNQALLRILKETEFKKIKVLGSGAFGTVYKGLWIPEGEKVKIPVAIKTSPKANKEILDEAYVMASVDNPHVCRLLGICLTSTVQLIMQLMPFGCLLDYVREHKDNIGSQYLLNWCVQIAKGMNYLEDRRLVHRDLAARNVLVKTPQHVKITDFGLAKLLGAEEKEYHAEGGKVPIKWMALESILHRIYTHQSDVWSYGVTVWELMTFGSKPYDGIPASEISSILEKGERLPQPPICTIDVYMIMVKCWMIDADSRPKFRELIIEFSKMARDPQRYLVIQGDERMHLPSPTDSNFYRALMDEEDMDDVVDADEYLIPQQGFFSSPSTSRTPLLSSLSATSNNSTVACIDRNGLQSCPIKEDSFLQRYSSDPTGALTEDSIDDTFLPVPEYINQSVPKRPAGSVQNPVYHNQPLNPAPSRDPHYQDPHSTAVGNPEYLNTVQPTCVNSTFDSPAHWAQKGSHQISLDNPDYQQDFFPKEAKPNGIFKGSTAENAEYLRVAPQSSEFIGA
T8 sequence (P00533 with tags, fused parts or gaps DEL746-750/C797S limits assumed): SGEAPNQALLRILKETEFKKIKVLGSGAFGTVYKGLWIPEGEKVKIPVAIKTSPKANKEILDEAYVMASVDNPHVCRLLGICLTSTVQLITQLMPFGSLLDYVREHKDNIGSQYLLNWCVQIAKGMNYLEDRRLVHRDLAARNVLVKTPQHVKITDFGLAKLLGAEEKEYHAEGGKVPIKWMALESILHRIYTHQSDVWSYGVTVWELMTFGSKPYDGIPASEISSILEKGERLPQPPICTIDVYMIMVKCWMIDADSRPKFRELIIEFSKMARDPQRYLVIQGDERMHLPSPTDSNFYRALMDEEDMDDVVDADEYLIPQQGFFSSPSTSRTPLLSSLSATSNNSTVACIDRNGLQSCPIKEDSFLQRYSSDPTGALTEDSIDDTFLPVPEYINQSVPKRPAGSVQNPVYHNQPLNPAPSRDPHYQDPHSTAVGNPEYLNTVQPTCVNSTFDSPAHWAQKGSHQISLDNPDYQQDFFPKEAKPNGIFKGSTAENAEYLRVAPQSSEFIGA
T5 sequence (P00533 25-1210 T790M/C797S/L858R): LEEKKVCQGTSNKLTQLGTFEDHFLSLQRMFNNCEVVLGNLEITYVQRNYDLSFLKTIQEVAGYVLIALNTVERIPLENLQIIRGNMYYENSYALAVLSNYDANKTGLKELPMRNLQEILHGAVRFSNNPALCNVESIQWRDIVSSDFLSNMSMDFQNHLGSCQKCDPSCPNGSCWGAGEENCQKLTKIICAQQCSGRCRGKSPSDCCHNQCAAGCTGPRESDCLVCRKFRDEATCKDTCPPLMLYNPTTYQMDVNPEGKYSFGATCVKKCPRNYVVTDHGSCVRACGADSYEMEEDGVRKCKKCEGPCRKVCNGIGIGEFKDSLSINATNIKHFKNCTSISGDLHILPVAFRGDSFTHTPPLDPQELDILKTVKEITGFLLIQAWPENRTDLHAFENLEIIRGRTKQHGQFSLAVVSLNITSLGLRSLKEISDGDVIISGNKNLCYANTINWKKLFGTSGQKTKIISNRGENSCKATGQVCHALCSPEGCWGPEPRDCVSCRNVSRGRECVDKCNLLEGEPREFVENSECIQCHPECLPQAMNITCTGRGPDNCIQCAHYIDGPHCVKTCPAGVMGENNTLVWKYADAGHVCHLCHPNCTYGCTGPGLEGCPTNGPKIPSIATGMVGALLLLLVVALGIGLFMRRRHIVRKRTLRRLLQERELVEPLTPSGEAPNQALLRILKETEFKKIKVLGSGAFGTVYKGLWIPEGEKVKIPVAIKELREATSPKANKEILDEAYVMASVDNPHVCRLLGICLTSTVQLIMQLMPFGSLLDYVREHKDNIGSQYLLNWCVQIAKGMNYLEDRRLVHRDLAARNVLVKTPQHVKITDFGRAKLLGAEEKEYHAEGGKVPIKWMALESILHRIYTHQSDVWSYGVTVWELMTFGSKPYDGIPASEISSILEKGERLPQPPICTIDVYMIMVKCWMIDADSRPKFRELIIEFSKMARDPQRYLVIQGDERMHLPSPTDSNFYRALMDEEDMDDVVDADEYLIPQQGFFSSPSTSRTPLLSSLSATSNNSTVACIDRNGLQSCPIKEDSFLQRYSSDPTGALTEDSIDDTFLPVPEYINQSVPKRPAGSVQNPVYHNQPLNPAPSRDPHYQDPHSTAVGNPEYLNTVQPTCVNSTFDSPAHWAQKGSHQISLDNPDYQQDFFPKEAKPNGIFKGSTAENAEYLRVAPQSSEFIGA
T1 sequence (P00533 25-1210): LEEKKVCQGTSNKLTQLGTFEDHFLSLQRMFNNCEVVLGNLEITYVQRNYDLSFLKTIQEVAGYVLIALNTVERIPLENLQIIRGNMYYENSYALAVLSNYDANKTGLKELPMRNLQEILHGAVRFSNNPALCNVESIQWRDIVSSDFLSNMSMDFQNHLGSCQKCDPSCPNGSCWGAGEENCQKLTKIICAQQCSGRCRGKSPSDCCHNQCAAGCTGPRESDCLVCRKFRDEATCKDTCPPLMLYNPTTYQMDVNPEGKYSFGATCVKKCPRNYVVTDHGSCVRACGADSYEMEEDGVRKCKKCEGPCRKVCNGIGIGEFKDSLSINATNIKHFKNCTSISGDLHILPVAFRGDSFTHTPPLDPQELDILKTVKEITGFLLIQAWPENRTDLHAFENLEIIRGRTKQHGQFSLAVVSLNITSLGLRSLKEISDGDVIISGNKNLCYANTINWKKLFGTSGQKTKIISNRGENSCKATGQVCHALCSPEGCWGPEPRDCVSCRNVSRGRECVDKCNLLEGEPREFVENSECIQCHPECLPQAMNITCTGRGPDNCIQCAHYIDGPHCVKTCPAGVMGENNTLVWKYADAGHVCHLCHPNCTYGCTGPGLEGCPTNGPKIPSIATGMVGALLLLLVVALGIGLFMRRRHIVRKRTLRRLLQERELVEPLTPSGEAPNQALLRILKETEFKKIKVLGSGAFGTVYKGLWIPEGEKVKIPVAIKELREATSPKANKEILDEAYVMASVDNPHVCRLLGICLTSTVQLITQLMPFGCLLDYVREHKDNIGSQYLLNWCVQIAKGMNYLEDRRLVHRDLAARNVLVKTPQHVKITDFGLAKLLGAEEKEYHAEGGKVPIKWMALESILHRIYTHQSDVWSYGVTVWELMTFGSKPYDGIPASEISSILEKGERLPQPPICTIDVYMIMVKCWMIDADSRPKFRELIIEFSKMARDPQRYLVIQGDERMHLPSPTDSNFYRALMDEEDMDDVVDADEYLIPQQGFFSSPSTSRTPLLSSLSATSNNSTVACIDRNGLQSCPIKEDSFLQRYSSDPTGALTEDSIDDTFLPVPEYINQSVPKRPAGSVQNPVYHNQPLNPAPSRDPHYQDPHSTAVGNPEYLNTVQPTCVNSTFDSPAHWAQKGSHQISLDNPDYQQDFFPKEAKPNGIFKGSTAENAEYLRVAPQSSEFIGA
T9 sequence (P00533 with tags, fused parts or gaps DEL746-750 limits assumed): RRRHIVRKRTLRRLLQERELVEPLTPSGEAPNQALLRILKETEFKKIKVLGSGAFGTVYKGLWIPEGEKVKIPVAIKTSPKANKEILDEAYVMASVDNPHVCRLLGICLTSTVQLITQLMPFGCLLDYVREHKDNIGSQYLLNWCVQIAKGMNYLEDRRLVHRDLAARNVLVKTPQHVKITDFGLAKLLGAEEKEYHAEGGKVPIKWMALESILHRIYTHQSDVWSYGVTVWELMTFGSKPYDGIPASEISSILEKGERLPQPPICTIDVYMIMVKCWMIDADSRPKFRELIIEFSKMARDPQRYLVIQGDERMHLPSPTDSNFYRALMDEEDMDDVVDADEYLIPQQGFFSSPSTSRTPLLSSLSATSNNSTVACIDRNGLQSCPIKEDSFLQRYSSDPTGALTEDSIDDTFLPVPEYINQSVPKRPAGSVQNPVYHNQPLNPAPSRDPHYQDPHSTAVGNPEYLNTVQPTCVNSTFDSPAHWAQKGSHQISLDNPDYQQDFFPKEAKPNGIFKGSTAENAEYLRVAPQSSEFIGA

IC50 [1, 12] [nM] | IC50 [3, 13] [nM] | IC50 [4, 14] [nM] | IC50 [5, 15] [nM] | IC50 [6, 16] [nM] | IC50 [7, 17] [nM] | IC50 [8, 18] [nM] | IC50 [9, 19] [nM] | GI50 [10, 20] [nM] | GI50 [10, 21] [nM] | GI50 [10, 22] [nM] | Structure (SMILES) | other results
 |  |  |  |  |  |  |  |  |  |  | CN(C)CCC1CN(c2ccc3nc4n(c3c2)C23CCC(CN(CCOc5c(cnn5C)-c5cc(cn(C)c5=O)C(=O)N4)C2)C3)C1 (single isomer, unassigned) [Example A95A] | IC50 ([1]; EGFR WT, 1 h, room temperature, read-out: IC50 (nM) @WT): > 5000 nM; IC50 ([2]; 1 h, room temperature, read-out: IC50 (nM) @L858R): 4640 nM; IC50 ([3]; EGFR Del19-T790M, 1 h, room temperature, read-out: IC50 (nM) @Del19-T790M): > 5000 nM; IC50 ([4]; EGFR T790M-C797S-Del19, 1 mM ATP, 1 h, room temperature, read-out: IC50 (nM) @T790M - C797S - Del19): > 5000 nM; IC50 ([5]; EGFR T790M-C797S-L858R, 1 h, room temperature, read-out: IC50 (nM) @T790M- C797S - L858R): > 5000 nM; IC50 ([6]; EGFR L858R-T790M, 1 h, room temperature, read-out: IC50 (nM) @L858R-T790M): > 5000 nM; IC50 ([7]; EGFR L858-C797S, 1 h, room temperature, read-out: IC50 (nM) @L858-C797S): > 5000 nM; IC50 ([8]; EGFR Del19-C797S, 1 h, room temperature, read-out: IC50 (nM) @Del19-C797S): 899 nM; IC50 ([9]; EGFR Del19, 1 mM ATP, 1 h, room temperature): 864 nM
> 500 | 109 | 44 | 1090 | 1960 | > 5000 | 627 | 1420 | 300 | 723 | 420 | Cc1cc2cc(n1)-c1cnn(C)c1OCCN1CCOCC(C1)n1c(nc3ccccc31)NC2=O (stereo not drawn) [Example B7, 15,21-dimethyl-23,29-dioxa-2,9,11,16,20,21,26-heptaazahexacyclo[24.4.1.1^{13,17}.0^{2,10}.0^{3,8}.0^{18,22}]dotriaconta-3,5,7,9,13(32),14,16,18(22),19-nonaen-12-one] | GI50 ([10]; BaF3 cells, EGFR DEL19 - T790-C797S, read-out: GI50 DEL19 - T790-C797S/BaF3): 296 nM; GI50 ([10]; Mus musculus, BaF3, 72 h, BaF3 cells, EGFR DEL19 - C797S, read-out: GI50 DEL19 - C797S/BaF3): 346 nM; GI50 ([10]; Mus musculus, BaF3, 72 h, BaF3 cells, EGFR L858R - C797S, read-out: GI50 L858R - C797S/BaF3): 334 nM; GI50 ([10]; Mus musculus, BaF3, 72 h, BaF3 cells, EGFR L858R, read-out: GI50 L858R/BaF3): 1900 nM; GI50 [11]: 667 nM
> 5000 | 21 | 8.2 | 14 | 37 | 300 | 26 | 38 | 19 | 38 | 10 | Cc1cc2cc(n1)-c1cnn(C)c1OCCN1CC3CCC(CC3)(C1)n1c(nc3ccc(N4CCC5(CCN(C)CC5)C4)cc31)NC2=O [Example B38] | IC50 ([2]; 1 h at room temperature, read-out: IC50 @L858R): 560 nM; GI50 ([10]; BaF3 cells, EGFR DEL19 - C797S, read-out: GI50 DEL19 - C797S/BaF3): 24 nM; GI50 ([10]; BaF3 cells, EGFR L858R, read-out: GI50 L858R/BaF3): 81 nM

Reference: patent US20260365670A1, “EGFR INHIBITORS AND USES THEREOF” (DIZAL (JIANGSU) PHARMACEUTICAL CO., LTD., priority 2022, published 2026)
